According to US20230293479A1, “MEDICINAL COMPOUNDS AND NUTRITIONAL SUPPLEMENTS” (RECEPTOR HOLDINGS, INC., priority 2017, published 2023):

Columns and labels:
[1] = Example 4: cannabis/SNAC oral rat pharmacokinetic (PK) study; type: in vivo, rats; conditions: for Cmax increase over cannabis alone: oral gavage, 50 mg/kg cannabis extract with 500 mg/kg SNAC versus 25 mg/kg cannabis alone
Description: Example 4. Summary of cannabis/SNAC oral rat pharmacokinetic (PK) study.
Methods. Animals were dosed on Day 1 and a series of blood samples were collected over a period of 4 hours post dose for pharmacokinetic evaluation. Animals were euthanized following collection of their last blood sample.

study participants [2] = assay: Example 2: onset and duration of action of orally administered cannabis/SNAC composition at a low SNAC dose (100 mg); type: in vivo, human; conditions: oral cannabinoid formulation, 100 mg SNAC
Description: Example 2. […] This study was designed to assess the utility of SNAC in enabling a rapid-acting oral form of cannabis at a low dose.
Selection of Participants. Three study participants were recruited to ingest cannabis compositions and record the onset, duration, and intensity of cannabis-induced euphoria and/or dysphoria.
(§1) Formulations. The selected cannabis concentrate is commercially available and was provided to participants in an ethanol solution. The concentrate contains 8 mg THC per dose. It was selected because it contains a high percentage of THC, which provides a noticeable effect on user-reported “euphoria”.
(§2) Methods. For the Control experiment, each participant mixed the cannabis concentrate with 15 ml (one tablespoon) of aqueous ethanol, and immediately swallowed the mixture.
(§3) For both the Control experiment and the Test experiment, each participant recorded the time of dose administration, the time of onset of euphoria and/or dysphoria, and the observed level of euphoria and/or dysphoria in fifteen minute intervals for five hours following administration of the cannabis dose. Euphoria and dysphoria were reported using a scale value, in a range from 1-10.

study participants [3] = assay: Example 1: onset and duration of action of orally administered cannabis/SNAC composition (self-reported euphoria/dysphoria, 200 mg SNAC); type: in vivo, human; conditions: oral cannabinoid formulation, 200 mg SNAC
Description: Example 1. […] This study was designed to assess the utility of SNAC in enabling a rapid-acting oral form of cannabis.
Selection of Participants. Six study participants were recruited to ingest cannabis compositions and record the onset, duration, and intensity of cannabis-induced euphoria and/or dysphoria.
as §1, §2, §3

[4] = cited from earlier work

## O=C([O-])CCCCCCCNC(=O)c1ccccc1O.[Na+] [SNAC, sodium N-[8-(2-hydroxybenzoyl)amino] caprylate]
[1]; administered to rats by oral gavage
  effect on cannabinoid absorption: enhances cannabinoid absorption
Study participants [2]
  effect of the absorption enhancer on the duration of action: no effect
Study participants [3]
  effect of the absorption enhancer on the cannabinoid duration of action: no effect

## CCCCCc1cc(O)c2c(c1)OC(C)(C)[C@@H]1CCC(C)=C[C@@H]21 [THC, (−)-trans-delta-9-tetrahydrocannabinol]
[4]; after administration
  duration of appetite stimulant effect: ≥ 24 h
[4]; after oral administration
  onset of action: 0.5 to 1 h
  peak effect: 2 to 4 h
[4]; oral, first pass hepatic metabolism and high lipid solubility
  administered dose reaching the systemic circulation: 10-20%
[1]; rats
  Cmax increase over cannabis alone: 6.9 fold

## C=C(C)[C@@H]1CCC(C)=C[C@H]1c1c(O)cc(CCCCC)cc1O [CBD, cannabidiol]
[1]; rats
  Cmax increase over cannabis alone: 14.2 fold
[1]; rats, single oral gavage, cannabis extract (THC/CBD 1:1) with SNAC, range over Groups 3-5 (25/250, 25/500, 50/500 mg extract/kg and mg SNAC/kg)
  mean maximum concentration Cmax: 31.7 to 159.3 ng/mL
[1]; rats, single oral gavage, cannabis extract with SNAC, range over Groups 3-5
  AUC0-Tlast: 13.17 to 382.14 ng·h/mL
[1]; rats, single oral gavage, cannabis extract with SNAC, range over Groups 3-5, post dose
  time to reach the mean maximum plasma concentration (Tmax): 15 to 60 min
